Measurements published in ChEMBL document CHEMBL1144641, “DNA cleavage promoted by 2,9-dimethyl-4,7-diazadecane-2,9-dithiol (DDD) derivatives” (Bioorg Med Chem Lett, 2007).
Active and inactive are the calls of the source. The calls are words filed in the database; no cut-off is given here.

Experiments:
Type in all cases: nucleic-acid assay
Settings in all cases: Escherichia coli
Nucleic Acid [1] = assay: DNA cleavage activity assessed as conversion of supercoiled pUC19 plasmid to nicked form at pH 7 after 24 hrs in presence of hydrogen peroxide
Nucleic Acid [2] = assay: DNA cleavage activity assessed as conversion of supercoiled pUC19 plasmid to nicked form at 0.286 mM at pH 7 after 24 hrs
Nucleic Acid [3] = assay: DNA cleavage activity assessed as conversion of supercoiled pUC19 plasmid to nicked form at pH 7 after 12 hrs
Nucleic Acid [4] = assay: DNA cleavage activity assessed as conversion of supercoiled pUC19 plasmid to nicked form at pH 7 after 24 hrs
Nucleic Acid [5] = assay: DNA cleavage activity assessed as conversion of supercoiled pUC19 plasmid to nicked form at pH 7 after 1 hr
Nucleic Acid [6] = assay: DNA cleavage activity assessed as conversion of supercoiled pUC19 plasmid to nicked form at pH 7 after 24 hrs in presence of sodium azide
Nucleic Acid [7] = assay: DNA cleavage activity assessed as conversion of supercoiled pUC19 plasmid to nicked form at pH 7 after 24 hrs in presence of sodium iodide
Nucleic Acid [8] = assay: DNA cleavage activity assessed as conversion of supercoiled pUC19 plasmid to nicked form at pH 7 after 24 hrs in presence of tertiary-butyl alcohol

Row | Activity (Nucleic Acid [1]) | Activity (Nucleic Acid [2]) | Activity (Nucleic Acid [3]) [%] | Activity (Nucleic Acid [4]) [%] | Activity (Nucleic Acid [5]) [%] | Activity (Nucleic Acid [6]) | Activity (Nucleic Acid [7]) | Activity (Nucleic Acid [8]) | Compound
1 | Active | Active | 40.4 | 100 | 30.9 | inactive | inactive | inactive | CC1CCN(CCN(CCNCC(C)(C)S)CC(C)(C)S)CC1
2 | – | – | – | 48.2 | – | – | – | – | CC1CC(C)CN(CCN(CCNCC(C)(C)S)CC(C)(C)S)C1 (stereo not given)
3 | – | – | – | 74.8 | – | – | – | – | CC(C)(S)CNCCN(CCN1CCCCC1)CC(C)(C)S
